Assay results from US8742110B2, “Spiroxazolidinone compounds” (Merck Sharp & Dohme Corp., priority 2010, dated 2014).
Structures can show the parent of a compound that is named as a salt.

Target: SSTR5 (Homo sapiens (Human), UniProt P35346)
Test: SSTR5 binding assay
Settings: CHO-K1 membranes expressing cloned human SSTR5
Description: The receptor-ligand binding assays of all 5 subtype of SSTRs were performed with membranes isolated from Chinese hamster ovary (CHO)-K1 cells stably expressing the cloned human somatostatin receptors in 96-well format as previous reported.
The stable cell lines for SSTR1-SSTR5 were developed by stably transfecting with DNA for all five SSTRs using Lipofectamine. […] The assay buffer consisted of 50 mM TrisHCl (pH 7.8) with 1 mM EGTA, […] MgCl2, leupeptin (10 μg/mL), pepstatin (10 μg/mL), bacitracin (200 μg/mL), and aprotinin (0.5 μg/mL). CHO-K1 cell membranes, radiolabeled somatostatin, and unlabeled test compounds were resuspended or diluted in this assay buffer. Unlabeled test compounds were examined over a range of concentrations from 0.01 nM to 10,000 nM.
Compounds exemplified were tested in the SSTR5 binding assay.

Sequence of SSTR5 (P35346 whole entry): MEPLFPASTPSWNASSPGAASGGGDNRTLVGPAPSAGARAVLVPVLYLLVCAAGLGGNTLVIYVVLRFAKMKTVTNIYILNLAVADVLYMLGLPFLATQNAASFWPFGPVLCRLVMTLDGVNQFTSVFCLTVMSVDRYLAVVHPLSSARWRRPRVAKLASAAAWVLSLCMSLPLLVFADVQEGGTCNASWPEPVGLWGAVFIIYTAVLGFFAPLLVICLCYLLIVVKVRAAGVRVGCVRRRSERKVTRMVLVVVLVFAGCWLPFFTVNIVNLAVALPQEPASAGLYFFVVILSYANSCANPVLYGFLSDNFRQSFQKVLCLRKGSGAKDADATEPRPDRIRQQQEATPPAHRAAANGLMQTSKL

| IC50 [nM] | SMILES |
| --- | --- |
| 32.7 | CC(C)(C)n1cc(CN2CCC3(C2)CN(c2ccc(C(=O)O)cc2)C(=O)O3)c(-c2ccc(F)c(F)c2F)n1 (centres unmarked) [Example 2-17, 4-(7-{[1-tert-Butyl-3-(2,3,4-trifluorophenyl)-1H-pyrazol-4-yl]methyl}-2-oxo-1-oxa-3,7-diazaspiro[4.4]non-3-yl)benzoic acid, TFA salt] |
| 1.83 | O=C(O)c1ccc(N2CC3(CCN(Cc4cnn(-c5ccccc5)c4-c4cc(F)c(F)cc4F)CC3)OC2=O)cc1 [Example 2-7, 4-(2-Oxo-8-{[1-phenyl-5-(2,4,5-trifluorophenyl)-1H-pyrazol-4-yl]methyl}-1-oxa-3,8-diazaspiro[4.5]dec-3-yl)benzoic acid, TFA salt] |
| 98.7 | CCCCn1nc(CN2CCC3(CC2)CN(c2ccc(C(=O)O)cc2)C(=O)O3)c2cc(F)ccc21 [Example 6-4, 4-{8-[(1-Butyl-5-fluoro-1H-indazol-3-yl)methyl]-2-oxo-1-oxa-3,8-diazaspiro[4.5]dec-3-yl}benzoic acid, TFA salt] |
| 2.38 | Cc1cc(CN2CCC3(CC2)CN(c2ccc(C(=O)O)cc2)C(=O)O3)cc2c1OCC2(C)C [Example 5-1, 4-{2-Oxo-8-[(3,3,7-trimethyl-2,3-dihydro-1-benzofuran-5-yl)methyl]-1-oxa-3,8-diazaspiro[4.5]dec-3-yl}benzoic acid, TFA salt] |
| 1.33 | O=C(O)c1ccc(N2CC3(CCN(Cc4cn(C5CCCCC5)nc4-c4ccc(F)c(F)c4F)CC3)OC2=O)cc1 [Example 1-19, 4-(8-{[1-Cyclohexyl-3-(2,3,4-trifluorophenyl)-1H-pyrazol-4-yl]methyl}-2-oxo-1-oxa-3,8-diazaspiro[4.5]dec-3-yl)benzoic acid, TFA salt] |
| 410 | COc1ccc2c(CN3CCC4(CC3)CN(c3ccc(C(=O)O)cc3)C(=O)O4)nn(CC(C)(C)C)c2c1 [Example 6-11, 4-(8-{[1-(2,2-Dimethylpropyl)-6-methoxy-1H-indazol-3-yl]methyl}-2-oxo-1-oxa-3,8-diazaspiro[4.5]dec-3-yl)benzoic acid, TFA salt] |
| 29.4 | CC1(C)CCc2cc(CN3CCC4(CC3)CN(c3ccc(C(=O)O)cc3)C(=O)O4)ccc2O1 [Example 5-12, 4-{2-Oxo-8-[(2,2-dimethyl-3,4-dihydro-2H-chromen-6-yl)methyl]-1-oxa-3,8-diazaspiro[4.5]dec-3-yl}benzoic acid, TFA salt] |
| 65.2 | CCOc1cc(C)nc2c(OCC)cc(CN3CCC4(CC3)CN(c3ccc(C(=O)O)cc3)C(=O)O4)cc12 [Example 5-4, 4-{8-[(4,8-Diethoxy-2-methylquinolin-6-yl)methyl]-2-oxo-1-oxa-3,8-diazaspiro[4.5]dec-3-yl}benzoic acid, TFA salt] |
| 9.06 | COc1ccc2c(CN3CCC4(CC3)CN(c3ccc(C(=O)O)cc3)C(=O)O4)cn(-c3ccccc3)c2c1 [Example 6-23, 4-{8-[(6-Methoxy-1-phenyl-1H-indol-3-yl)methyl]-2-oxo-1-oxa-3,8-diazaspiro[4.5]dec-3-yl}benzoic acid, TFA salt] |
| 1.4 | CCOc1cc(CN2CCC3(CC2)CN(c2ccc(C(=O)O)nc2)C(=O)O3)cc(OCC)c1-c1ccc(F)cc1 [Example 3-4, 5-{8-[(2,6-Diethoxy-4′-fluorobiphenyl-4-yl)methyl]-2-oxo-1-oxa-3,8-diazaspiro[4.5]dec-3-yl}pyridine-2-carboxylic acid, TFA salt] |
| 8.34 | CCCCn1cc(CN2CCC3(CC2)CN(c2ccc(C(=O)O)cc2)C(=O)O3)c(Cc2cc(F)c(F)cc2F)n1 [Example 1-40, 4-(8-{[1-Butyl-3-(2,4,5-trifluorobenzyl)-1H-pyrazol-4-yl]methyl}-2-oxo-1-oxa-3,8-diazaspiro[4.5]dec-3-yl)benzoic acid, TFA salt] |
| 218 | O=C(O)c1ccc(N2CC3(CCN(Cc4cnc(-c5ccccc5)nc4-c4ccc(F)cc4)CC3)OC2=O)cc1 [Example 4-15, 4-(8-{[4-(4-Fluorophenyl)-2-phenylpyrimidin-5-yl]methyl}-2-oxo-1-oxa-3,8-diazaspiro[4.5]dec-3-yl)benzoic acid, TFA salt] |
| 2.12 | CCOc1cc(CN2CCC3(CC2)CN(c2cncc(C(=O)O)c2)C(=O)O3)cc(OCC)c1-c1ccc(F)cc1 [Example 3-5, 5-{8-[(2,6-Diethoxy-4′-fluorobiphenyl-4-yl)methyl]-2-oxo-1-oxa-3,8-diazaspiro[4.5]dec-3-yl}pyridine-3-carboxylic acid, TFA salt] |
| 0.26 | CC(C)n1nc(CN2CCC3(CC2)CN(c2ccc(C(=O)O)cc2)C(=O)O3)c2cc(OCc3ccccc3)ccc21 [Example 6-14, 4-(8-{[5-(Benzyloxy)-1-(propan-2-yl)-1H-indazol-3-yl]methyl}-2-oxo-1-oxa-3,8-diazaspiro[4.5]dec-3-yl)benzoic acid, TFA salt] |
| 2.3 | Cc1ccc(-c2cc(C)c(Cl)cc2CN2CCC3(CC2)CN(c2ccc(C(=O)O)cc2)C(=O)O3)cn1 [Example 4-23, 4-{8-[5-Chloro-4-methyl-2-(6-methylpyridin-3-yl)benzyl]-2-oxo-1-oxa-3,8-diazaspiro[4.5]dec-3-yl}benzoic acid, TFA salt] |
| 2.05 | COc1ccc(-c2nn(C(C)(C)C)cc2CN2CCC3(CC2)CN(c2ccc(C(=O)O)cc2)C(=O)O3)c(F)c1 [Example 1-32, 4-(8-{[1-tert-Butyl-3-(2-fluoro-4-methoxyphenyl)-1H-pyrazol-4-yl]methyl}-2-oxo-1-oxa-3,8-diazaspiro[4.5]dec-3-yl)benzoic acid, TFA salt] |
| 2.7 | CCCCn1cc(CN2CCC3(CC2)CN(c2ccc(C(=O)O)cc2)C(=O)O3)c(-c2ccc(F)c(F)c2F)n1 [Example 1-18, 4-(8-{[1-Butyl-3-(2,3,4-trifluorophenyl)-1H-pyrazol-4-yl]methyl}-2-oxo-1-oxa-3,8-diazaspiro[4.5]dec-3-yl)benzoic acid, TFA salt] |
| 509 | CCOc1nn(C(C)(C)C)cc1CN1CCC2(CC1)CN(c1ccc(C(=O)O)cc1)C(=O)O2 [Example 1-36, 4-{8-[(1-tert-Butyl-3-ethoxy-1H-pyrazol-4-yl)methyl]-2-oxo-1-oxa-3,8-diazaspiro[4.5]dec-3-yl}benzoic acid, TFA salt] |
| 9.47 | CCOc1cc(CN2CCC3(CC2)CN(c2ccc(C(C)(C)C(=O)O)cc2)C(=O)O3)cc(OCC)c1-c1ccc(F)cc1 [Example 3-6, 2-(4-{8-[(2,6-Diethoxy-4′-fluorobiphenyl-4-yl)methyl]-2-oxo-1-oxa-3,8-diazaspiro[4.5]dec-3-yl}phenyl)-2-methylpropanoic acid, TFA salt] |
| 442 | Cc1cccn2c(-c3cc(F)c(F)cc3F)c(CN3CCC4(CC3)CN(c3ccc(C(=O)O)cc3)C(=O)O4)nc12 [Example 6-39, 4-(8-{[8-Methyl-3-(2,4,5-trifluorophenyl)imidazo[1,2-a]pyridin-2-yl]methyl}-2-oxo-1-oxa-3,8-diazaspiro[4.5]dec-3-yl)benzoic acid, TFA salt] |
| 1.21 | CCOc1cc(CN2CCC3(CC2)CN(c2ccc(C(=O)O)c(Cl)c2)C(=O)O3)cc(OCC)c1-c1ccc(F)cc1 [Example 3-9, 2-Chloro-4-{8-[(2,6-diethoxy-4′-fluorobiphenyl-4-yl)methyl]-2-oxo-1-oxa-3,8-diazaspiro[4.5]dec-3-yl}benzoic acid, TFA salt] |
| 3.62 | CC1(C)CCOc2c(F)cc(CN3CCC4(CC3)CN(c3ccc(C(=O)O)cc3)C(=O)O4)cc21 [Example 5-14, 4-{8-[(8-Fluoro-4,4-dimethyl-3,4-dihydro-2H-chromen-6-yl)methyl]-2-oxo-1-oxa-3,8-diazaspiro[4.5]dec-3-yl}benzoic acid, TFA salt] |
| 1.46 | CCOc1cc(CN2CCC3(CC2)CN(c2cncc(O)c2)C(=O)O3)cc(OCC)c1-c1ccc(F)cc1 [Example 3-2, 8-[(2,6-Diethoxy-4′-fluorobiphenyl-4-yl)methyl]-3-(5-hydroxypyridin-3-yl)-1-oxa-3,8-diazaspiro[4.5]decan-2-one, TFA salt] |
| 210 | O=C(O)c1ccc(N2CC3(CCN(Cc4ccc5c(c4)OCO5)CC3)OC2=O)cc1 [Example 5-17, 4-{8-[(1,3-Benzodioxol-5-yl)methyl]-2-oxo-1-oxa-3,8-diazaspiro[4.5]dec-3-yl}benzoic acid, TFA salt] |
| 1.45 | COc1ccc2c(c1)c(CN1CCC3(CC1)CN(c1ccc(C(=O)O)cc1)C(=O)O3)cn2C(C)C [Example 6-26, 4-(8-{[5-Methoxy-1-(propan-2-yl)-1H-indol-3-yl]methyl}-2-oxo-1-oxa-3,8-diazaspiro[4.5]dec-3-yl)benzoic acid, TFA salt] |
| 1.15 | CCOc1cc(CN2CCC3(CC2)CN(c2ccc(C(=O)O)c(F)c2)C(=O)O3)cc(OCC)c1-c1ccc(F)cc1 [Example 3-18, 4-{8-[(2,6-Diethoxy-4′-fluorobiphenyl-4-yl)methyl]-2-oxo-1-oxa-3,8-diazaspiro[4.5]dec-3-yl}-2-fluorobenzoic acid, TFA salt] |
| 1.29 | O=C(O)c1ccc(N2CC3(CCN(Cc4cn(C5CCCCC5)nc4-c4cc(F)c(F)cc4F)CC3)OC2=O)cc1 [Example 1-33, 4-(8-{[1-Cyclohexyl-3-(2,4,5-trifluorophenyl)-1H-pyrazol-4-yl]methyl}-2-oxo-1-oxa-3,8-diazaspiro[4.5]dec-3-yl)benzoic acid, TFA salt] |
| 0.243 | O=C(O)c1ccc(N2CC3(CCN(Cc4cc5c(cc4-c4cc(F)c(F)cc4F)CCC5)CC3)OC2=O)cc1 [Example 4-19, 4-(2-Oxo-8-{[6-(2,4,5-trifluorophenyl)-2,3-dihydro-1H-inden-5-yl]methyl}-1-oxa-3,8-diazaspiro[4.5]dec-3-yl)benzoic acid, TFA salt] |

| SMILES | IC50 [nM] |
| --- | --- |
| CCCn1nc(CN2CCC3(CC2)CN(c2ccc(C(=O)O)cc2)C(=O)O3)c2ccc(OC)cc21 [Example 6-3, 4-{8-[(6-Methoxy-1-propyl-1H-indazol-3-yl)methyl]-2-oxo-1-oxa-3,8-diazaspiro[4.5]dec-3-yl}benzoic acid, TFA salt] | 156 |
